26 compounds from ChEMBL document CHEMBL5096229, “A 1,2,3-Triazole Derivative of Quinazoline Exhibits Antitumor Activity by Tethering RNF168 to SQSTM1/P62” (J Med Chem, 2022) can be followed below.

Active and inactive are the calls of the source. No cut-off for these calls is given here. Some results are limits rather than exact numbers.

For data set [1], the system named is HCT-116. Kind of data set: Induction of apoptosis in human HCT-116 cells at 5 to 10 uM measured after 24 hrs by annexinV-FITC/propidium iodide staining based flow cytometry analysis. Type of data set: functional, cell-based. The settings on record: dose 5-10 µM.
The test system of another data set is A549. The experiment in a line: Cytotoxicity against human A549 cells assessed as reduction in cell viability incubated for 72 hrs by MTS assay. Type of data set: functional, cell-based. The settings on record: A549, 72 h.
The subject of data set [2] is HCT-116. The experiment in a line: Cytotoxicity against human HCT-116 cells assessed as reduction in cell viability incubated for 72 hrs by MTS assay. Type of data set: functional, cell-based. Particulars: HCT-116, 72 h. For orientation: Tetrazolium dyes change colour on reduction, which living cells bring about.
Data set [3] concerns HCT-116. The experiment in a line: Induction of autophagy in human HCT-116 cells assessed as increase in LC-3B puncta level measured after 12 to 24 hrs by immunofluorescence analysis. Type of data set: functional, cell-based. Particulars: time 12-24 hrs.
In data set [4] the test system is HCT-116. The experiment in a line: Induction of autophagy in human HCT-116 cells assessed as increase in p62 protein level measured after 12 to 24 hrs by Western blot analysis. Type of data set: functional, cell-based. The settings on record: time 12-24 hrs. For orientation: In western blotting, separated proteins are transferred to a membrane and probed.
The test system of another data set is MCF7. The experiment in a line: Cytotoxicity against human MCF7 cells assessed as reduction in cell viability incubated for 72 hrs by MTS assay. The class given is functional, cell-based. The settings on record: MCF7, 72 h.
The test system of a further data set is HeLa. Kind of data set: Cytotoxicity against human HeLa cells assessed as reduction in cell viability incubated for 72 hrs by MTS assay. Type of data set: functional, cell-based.
A further data set deals with U2OS. The experiment in a line: Cytotoxicity against human U2OS cells assessed as reduction in cell viability incubated for 72 hrs by MTS assay. The class given is functional, cell-based.
Data set [5] is described as follows: Cytotoxicity against human MCF-10A cells assessed as reduction in cell viability incubated for 72 hrs by MTS assay. The class given is toxicity, cell-based.
A further data set concerns A-375. Kind of data set: Cytotoxicity against human A-375 cells assessed as reduction in cell viability incubated for 72 hrs by MTS assay. The settings on record: A-375, 72 h. Type of data set: functional, cell-based.
Another data set concerns MGC-803. Kind of data set: Cytotoxicity against human MGC-803 cells assessed as reduction in cell viability incubated for 72 hrs by MTS assay. The class given is functional, cell-based. The settings on record: MGC-803, 72 h.
The subject of another data set is HepG2. Kind of data set: Cytotoxicity against human HepG2 cells assessed as reduction in cell viability incubated for 72 hrs by MTS assay. The class given is functional, cell-based. Particulars: HepG2, 72 h.
In the next data set the test system is MDA-MB-231. Kind of data set: Cytotoxicity against human MDA-MB-231 cells assessed as reduction in cell viability incubated for 72 hrs by MTS assay. Type of data set: functional, cell-based. Particulars: MDA-MB-231, 72 h.
For data set [6], the system named is HCT-116. Kind of data set: Induction of cell cycle arrest in human HCT-116 cells assessed as accumulation at S phase at IC50 concentration after 24 hrs by propidium iodide-staining based flow cytometry (reference value: 17.17 +/- 0.18%). Type of data set: functional. For orientation: In flow cytometry, cells or beads pass a laser one at a time.
The test system of data set [7] is HCT-116. Kind of data set: Induction of cell cycle arrest in human HCT-116 cells assessed as accumulation at G0/G1 phase at IC50 concentration after 24 hrs by propidium iodide-staining based flow cytometry (reference value: 58.01 +/- 1.77%). Type of data set: functional.
Data set [8] relates to HCT-116. The experiment in a line: Induction of cell cycle arrest in human HCT-116 cells assessed as accumulation at G2/M phase at IC50 concentration after 24 hrs by propidium iodide-staining based flow cytometry (reference value: 23.25 +/- 1.38%). Type of data set: functional.
Data set [9] deals with HCT-116. The experiment in a line: Induction of cell cycle arrest in human HCT-116 cells assessed as accumulation at S phase at 0.34 uM after 24 hrs by propidium iodide-staining based flow cytometry (reference value: 17.17 +/- 0.18%). The class given is functional.
Data set [10] has as its system HCT-116. The experiment in a line: Induction of cell cycle arrest in human HCT-116 cells assessed as accumulation at G0/G1 phase at 0.34 uM after 24 hrs by propidium iodide-staining based flow cytometry (reference value: 58.01 +/- 1.77%). The class given is functional.
Data set [11] has as its system HCT-116. Kind of data set: Induction of cell cycle arrest in human HCT-116 cells assessed as accumulation at G2/M phase at 0.34 uM after 24 hrs by propidium iodide-staining based flow cytometry (reference value: 23.25 +/- 1.38%). Type of data set: functional.
Another data set has as its target Sequestosome-1 (Homo sapiens, UniProt Q13501). The experiment in a line: Binding affinity to P62 in human HCT-116 cells lysates at 10 uM incubated for 12 hrs by pull-down based immunoblot assay. Type of data set: subcellular. The settings on record: filed as activator.
Data set [12] relates to Bacteria. The experiment in a line: Binding affinity to bacteria produced His tagged-P62 at 10 uM incubated for 12 hrs by pull-down based immunoblot assay. Particulars: filed as activator.
For data set [13], the target named is T1, E3 ubiquitin-protein ligase RNF168 (Homo sapiens, UniProt Q8IYW5). The experiment in a line: Binding affinity to RNF168 (unknown origin) by MST assay.
In data set [14] the target is T1, E3 ubiquitin-protein ligase RNF168. Kind of data set: Binding affinity to RNF168 in human HCT-116 cells lysates at 10 uM by pull-down based immunoblot assay. Type of data set: subcellular. Particulars: filed as activator.
Data set [15] has as its system Bacteria. Kind of data set: Binding affinity to bacteria produced GST-tagged RNF168 at 10 uM by pull-down based immunoblot assay. Particulars: filed as activator.

T1 sequence (Q8IYW5 whole entry): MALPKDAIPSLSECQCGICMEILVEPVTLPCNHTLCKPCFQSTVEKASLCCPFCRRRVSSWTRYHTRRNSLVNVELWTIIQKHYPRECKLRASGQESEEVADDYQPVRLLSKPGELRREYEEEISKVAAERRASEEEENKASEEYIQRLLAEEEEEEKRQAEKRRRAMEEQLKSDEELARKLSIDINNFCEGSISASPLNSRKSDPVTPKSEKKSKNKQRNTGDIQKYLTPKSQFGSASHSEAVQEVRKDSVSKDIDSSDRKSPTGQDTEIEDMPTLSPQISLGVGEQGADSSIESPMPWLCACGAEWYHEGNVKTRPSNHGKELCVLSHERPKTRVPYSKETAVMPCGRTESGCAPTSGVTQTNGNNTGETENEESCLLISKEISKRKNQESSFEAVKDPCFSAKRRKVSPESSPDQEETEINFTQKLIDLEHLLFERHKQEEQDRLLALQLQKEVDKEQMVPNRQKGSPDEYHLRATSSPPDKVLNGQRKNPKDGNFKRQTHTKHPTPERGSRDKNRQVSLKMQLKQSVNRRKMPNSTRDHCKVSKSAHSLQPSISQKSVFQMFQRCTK
Sequestosome-1, sequence (Q13501 whole entry): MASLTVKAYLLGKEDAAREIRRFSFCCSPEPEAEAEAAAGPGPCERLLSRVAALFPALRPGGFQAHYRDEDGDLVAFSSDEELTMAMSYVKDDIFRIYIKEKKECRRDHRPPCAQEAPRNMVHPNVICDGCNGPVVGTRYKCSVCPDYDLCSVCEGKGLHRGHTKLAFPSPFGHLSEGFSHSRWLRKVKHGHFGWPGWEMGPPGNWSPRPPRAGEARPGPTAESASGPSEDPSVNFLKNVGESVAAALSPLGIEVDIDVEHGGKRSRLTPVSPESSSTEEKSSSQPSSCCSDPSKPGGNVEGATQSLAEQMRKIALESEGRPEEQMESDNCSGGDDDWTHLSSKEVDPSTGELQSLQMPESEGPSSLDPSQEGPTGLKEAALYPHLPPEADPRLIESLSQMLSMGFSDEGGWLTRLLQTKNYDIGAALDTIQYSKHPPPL

Take `CC[C@@]1(O)C(=O)OCc2c1cc1n(c2=O)Cc2cc3ccccc3nc2-1`: the result with HCT-116 [1] was Active.
What is called IC50 is the concentration at which inhibition is half-maximal. As to `COc1cc(-n2cc(-c3ccc4nc(C)[nH]c(=O)c4c3)nn2)cc(OC)c1OC`, the IC50 in the data set with A549 and in the data set with HCT-116 [2] was > 20 µM each time.
Regarding `Nc1nc(N)c2cc(-c3cn(-c4ccc([N+](=O)[O-])cc4)nn3)ccc2n1`, the results for the IC50 in the data set with A549 and with HCT-116 [2] were 7.83 µM and 9.86 µM, respectively.
As to `CCN(CC)CCCC(C)Nc1ccnc2cc(Cl)ccc12` (stereo not drawn), the result in the data set with HCT-116 [3] and in the data set with HCT-116 [4] was Active.
For `COc1ccc(-n2cc(-c3ccc4nc(N)nc(N)c4c3)nn2)c([N+](=O)[O-])c1`, the IC50 worked out at 8.4 µM in the data set on A549 and 8.04 µM with HCT-116 [2].
In the case of `Nc1nc(N)c2cc(-c3cn(-c4ccc(F)cc4)nn3)ccc2n1`, the IC50 in the data set on A549 came out at 8.7 µM; with HCT-116 [2], 2.89 µM.
For `Cc1nc2ccc(CN(C)c3ccc(C(=O)N[C@@H](CCC(=O)O)C(=O)O)s3)cc2c(=O)[nH]1` [RALTITREXED], the IC50 in the data set with MCF7 is 10.9 µM; in the data set with HeLa, 5.51 µM; in the data set with U2OS, > 20 µM; in the data set on A549, 0.81 µM; with HCT-116 [2], 0.076 µM; in the data set with A-375, 4.68 µM. Also, the IC50 with MGC-803 was 9.52 µM; in the data set with HepG2, 9.63 µM; with MDA-MB-231, > 20 µM. In data set [5], the IC50 at 72 h is > 20 µM.
Turning to `O=c1[nH]cc(F)c(=O)[nH]1` [FLUOROURACIL], the IC50 in the data set with MCF7 was > 20 µM; in the data set with HeLa, > 20 µM; in the data set with U2OS, > 20 µM; in the data set on A549 it was 4.52 µM; with HCT-116 [2], 4.89 µM; with A-375, 3.52 µM. Besides, the IC50 with MGC-803 was 7.54 µM; in the data set with MDA-MB-231 it was 10.2 µM. The Activity with HCT-116 [6] was 65.12%; with HCT-116 [7], 34.65%; in the data set on HCT-116 [8], 11.89%. Further, the half-inhibitory concentration (IC50) at 72 h in [5] was > 20 µM.
For the compound `N#Cc1ccc(-n2cc(-c3ccc4nc(N)nc(N)c4c3)nn2)cc1`, the IC50 in the data set on A549 and with HCT-116 [2] was > 20 µM in each case.
With `Nc1nc(N)c2cc(-c3cn(-c4ccc(O)cc4)nn3)ccc2n1`, the IC50 with A549 and with HCT-116 [2] was > 20 µM each time.
As for `Nc1nc(N)c2cc(-c3cn(-c4ccccc4)nn3)ccc2n1`, the IC50 in the data set on A549 was 2.18 µM; in the data set on HCT-116 [2] it was 1.93 µM.
`COc1ccc(-n2cc(-c3ccc4nc(N)nc(N)c4c3)nn2)cc1O`: the half-inhibitory concentration (IC50) with A549 and in the data set on HCT-116 [2] was > 20 µM each time.
Turning to `COC(=O)Nc1nc2cc(C(=O)c3cccs3)ccc2[nH]1` [NOCODAZOLE], the results for the Activity with HCT-116 [9], in the data set with HCT-116 [10] and in the data set with HCT-116 [11] were 7.11%, 2.92% and 93.17%, respectively.
As for `COc1ccc(OC)c(-n2cc(-c3ccc4nc(N)nc(N)c4c3)nn2)c1`, the figures for the IC50 in the data set with A549 and with HCT-116 [2] were 8.36 µM and 3.09 µM, respectively.
With `Nc1nc(N)c2cc(-n3cc(-c4ccccc4)nn3)ccc2n1`, the IC50 in the data set with A549 is 6.65 µM; with HCT-116 [2] it was 5.46 µM.
Turning to `Nc1nc(N)c2cc(-c3cn(-c4ccc(F)cc4F)nn3)ccc2n1`, the results for the IC50 in the data set with A549 and in the data set on HCT-116 [2] were 3.74 µM and 3.29 µM, respectively.
Taken in the same sequence, the figures for `COc1ccc(-n2cc(-c3ccc4nc(N)nc(N)c4c3)nn2)cc1` were > 20 µM and 2.44 µM.
Turning to `COc1ccc(-n2cc(-c3ccc4nc(N)nc(N)c4c3)nn2)c(OC)c1`, the IC50 in the data set with A549 was > 20 µM; with HCT-116 [2], 5.35 µM.
As for `COc1cc(-n2cc(-c3ccc4nc(N)[nH]c(=O)c4c3)nn2)cc(OC)c1OC`, the IC50 in the data set with A549 and in the data set with HCT-116 [2] was > 20 µM throughout.
`COc1cc(-c2cn(-c3ccc4nc(N)nc(N)c4c3)nn2)cc(OC)c1OC`: the IC50 in the data set on A549 is 1.88 µM; with HCT-116 [2], 0.87 µM.
Consider `COc1cccc(-n2cc(-c3ccc4nc(N)nc(N)c4c3)nn2)c1`, for which the IC50 stood at 3.27 µM in the data set with A549 and 2.75 µM in the data set on HCT-116 [2].
Consider `Nc1nc(N)c2cc(-c3cn(-c4ccc(Cl)cc4)nn3)ccc2n1`, for which the values for the IC50 with A549 and with HCT-116 [2] were 7.61 µM and 2.15 µM, respectively.
In the case of `COc1cc(OC)cc(-n2cc(-c3ccc4nc(N)nc(N)c4c3)nn2)c1`, the 50% inhibitory concentration (IC50) came to 4.74 µM in the data set with A549 and 1.34 µM in the data set on HCT-116 [2].
Regarding `Nc1nc(N)c2cc(-c3cn(-c4ccc(Br)cc4)nn3)ccc2n1`, the IC50 in the data set with A549 is 2.14 µM; in the data set with HCT-116 [2] it was 1.69 µM.
In the case of `Cc1ccc(-n2cc(-c3ccc4nc(N)nc(N)c4c3)nn2)cc1`, the IC50 worked out at 1.78 µM in the data set with A549 and 2.46 µM with HCT-116 [2].
For orientation: Kd means the equilibrium constant for the complex coming apart. Read a low Kd as tighter binding. As to `COc1cc(-n2cc(-c3ccc4nc(N)nc(NCCCCCCNC(=O)CCCC[C@@H]5SC[C@@H]6NC(=O)N[C@@H]65)c4c3)nn2)cc(OC)c1OC`, the outcome (on Sequestosome-1; in the data set on Bacteria [12]; in data set [14]; with Bacteria [15]) was Active. In data set [13], this compound gave a Kd of 6.82 µM.
